Laboratory results taken from patent US20230374007A1, “COMPOUNDS AND THEIR USE IN TREATING CANCER” (AstraZeneca AB, priority 2020, published 2023).

How the values were obtained:
[1] = target: T1, endogenous SALL4 protein in Kelly cells (Homo sapiens, UniProt Q9UJQ4); experiment: Endogenous SALL4 degradation assay (SDS-PAGE); type: cell-based; conditions: 10 μM, 20 h of treatment
T1 construct: the endogenous SALL4 protein; endogenous in cells; host or cells: Kelly

[2] = target: T2, cereblon (CRBN)—DNA damage protein 1 (DDB1) complex (Homo sapiens, UniProt Q96SW2); experiment: Cereblon HTRF binding assay
T2 construct: encoding amino acid residues 1 to 442 (Uniprot Q96SW2); hexahistidine (N); thrombin cleavage site (N); made in house; host or cells: Sf9 insect cells (baculovirus co-infection)
T2 sequence (Q96SW2 with tags, fused parts or gaps): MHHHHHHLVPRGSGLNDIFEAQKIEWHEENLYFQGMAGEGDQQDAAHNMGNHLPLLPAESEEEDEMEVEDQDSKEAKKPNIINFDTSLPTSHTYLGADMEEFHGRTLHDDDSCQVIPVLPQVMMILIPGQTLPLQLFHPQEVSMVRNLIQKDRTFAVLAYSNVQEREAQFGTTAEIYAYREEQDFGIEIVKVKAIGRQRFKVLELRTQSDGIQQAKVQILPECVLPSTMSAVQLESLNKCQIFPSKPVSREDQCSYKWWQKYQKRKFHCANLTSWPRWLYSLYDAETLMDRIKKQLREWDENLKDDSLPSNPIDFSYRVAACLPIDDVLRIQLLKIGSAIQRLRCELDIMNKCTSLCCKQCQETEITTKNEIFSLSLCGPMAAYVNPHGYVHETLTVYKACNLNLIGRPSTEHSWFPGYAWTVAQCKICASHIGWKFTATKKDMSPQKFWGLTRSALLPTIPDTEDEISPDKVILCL
How it was run: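 Biotinylated His-tagged CRBN-DDB1 (0.2 nM, baculovirus-expressed) was combined with 0.2 nM terbium cryptate streptavidin and 2 nM Cy5-lenalidomide probe in 50 mM Tris-HCl pH 7.5, 100 mM NaCl, 1 mM TCEP, 500 μM EDTA, 0.01% Pluronic F127 for 2 h at r.t. HTRF ratio was normalized to plate controls. IC50 came from a Hill fit, given as mean of one or more experiments.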

[3] = target: T3, endogenous IKZF1 protein in NB4 cells (Homo sapiens, UniProt Q13422); experiment: Endogenous Ikaros 1 (IKZF1) degradation assay (SDS-PAGE); type: cell-based; conditions: 1 μM and 10 μM, 20 h of treatment
T3 construct: the endogenous IKZF1 protein; endogenous in cells; host or cells: NB4
T3 sequence (Q13422 whole entry): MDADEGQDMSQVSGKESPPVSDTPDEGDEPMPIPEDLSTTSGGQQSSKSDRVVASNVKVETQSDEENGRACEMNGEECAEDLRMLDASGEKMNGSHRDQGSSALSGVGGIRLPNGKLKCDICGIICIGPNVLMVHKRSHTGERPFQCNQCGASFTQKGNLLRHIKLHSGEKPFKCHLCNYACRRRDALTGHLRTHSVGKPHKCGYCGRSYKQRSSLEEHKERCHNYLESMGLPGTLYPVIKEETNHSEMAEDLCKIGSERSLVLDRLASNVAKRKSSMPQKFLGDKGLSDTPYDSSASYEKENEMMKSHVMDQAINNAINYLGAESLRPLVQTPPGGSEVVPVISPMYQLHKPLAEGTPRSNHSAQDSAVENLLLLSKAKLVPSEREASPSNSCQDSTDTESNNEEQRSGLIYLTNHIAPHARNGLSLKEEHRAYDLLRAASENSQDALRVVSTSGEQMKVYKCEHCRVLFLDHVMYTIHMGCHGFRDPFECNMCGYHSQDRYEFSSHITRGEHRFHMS

[4] = target: T4, human BRD4 (amino acid residues 42 to 169) (Homo sapiens, UniProt O60885); experiment: BRD4 surface plasmon resonance (SPR) assay; type: binding; conditions: biotinylated BRD4, 25° C., read-out: BRD4 Affinity Kd
T4 construct: encoding amino acid residues 42 to 169 (Uniprot 060885) of human BRD4; hexahistidine (N, cleaved yes); TEV cleavage site (N, cleaved yes); made in house; host or cells: E. coli BL21 Gold (DE3)

[5] = target: T5, BRD4 tagged to a HiBiT tag in HEK 293 cells (Homo sapiens, UniProt O60885); experiment: HiBiT degradation assay; type: cell-based; conditions: for DC50: BRD4 degradation, HiBiT-BRD4 HEK 293 cells, 18 h; for Dmax: HEK293
T5 construct: at the N-terminus of endogenous BRD4; endogenous in cells
Experimental: Determination of PROTAC potency was determined in HEK 293 cells expressing BRD4 tagged to a HiBiT tag. To generate those cells, HiBiT tag (aminoacid sequence: […]) was inserted, via CRISPR CAS9 knock-in, at the N-terminus of endogenous BRD4.
To measure success of knock-in the cells were then tested for their level of luminescence. Finally a stable pool was generated from them. In a typical experiment, 14×10^3 cells are seed in the wells of a 384 well plate (white flat bottom, tissue culture ready, corning 781080) in 40 μL of culture medium (DMEM, 10% FBS and 2 mM Gln). Immediately after seeding, PROTAC compounds, diluted in DMSO solution, are added to the wells via ECHO 555 acoustic dispenser at the appropriate concentration. DMSO is used as a not active control and as normalization. In each plate a series of compounds of known DC50 are included as quality control. The 384 well plate is placed in an incubator at 37° C. and 5% CO2 for 18 h. At the end of the incubation period plates are removed from the incubator and the medium is replaced with 10 μL of PBS and 10 μL of complete NanoGlo HiBiT solution (Promega N3040, consisting of 9.7 μL of Lysis buffer, with 0.1 μL of LgBiT protein and 0.2 μL of nanoluciferase substrate). After 15 minutes of incubation at r.t., the luciferase activity of the plate is recorded in a luminometer. dBET6 (MCE® Cat. No.: HY-112588) was used for normalization when calculating Dmax.

T1 sequence (Q9UJQ4 whole entry): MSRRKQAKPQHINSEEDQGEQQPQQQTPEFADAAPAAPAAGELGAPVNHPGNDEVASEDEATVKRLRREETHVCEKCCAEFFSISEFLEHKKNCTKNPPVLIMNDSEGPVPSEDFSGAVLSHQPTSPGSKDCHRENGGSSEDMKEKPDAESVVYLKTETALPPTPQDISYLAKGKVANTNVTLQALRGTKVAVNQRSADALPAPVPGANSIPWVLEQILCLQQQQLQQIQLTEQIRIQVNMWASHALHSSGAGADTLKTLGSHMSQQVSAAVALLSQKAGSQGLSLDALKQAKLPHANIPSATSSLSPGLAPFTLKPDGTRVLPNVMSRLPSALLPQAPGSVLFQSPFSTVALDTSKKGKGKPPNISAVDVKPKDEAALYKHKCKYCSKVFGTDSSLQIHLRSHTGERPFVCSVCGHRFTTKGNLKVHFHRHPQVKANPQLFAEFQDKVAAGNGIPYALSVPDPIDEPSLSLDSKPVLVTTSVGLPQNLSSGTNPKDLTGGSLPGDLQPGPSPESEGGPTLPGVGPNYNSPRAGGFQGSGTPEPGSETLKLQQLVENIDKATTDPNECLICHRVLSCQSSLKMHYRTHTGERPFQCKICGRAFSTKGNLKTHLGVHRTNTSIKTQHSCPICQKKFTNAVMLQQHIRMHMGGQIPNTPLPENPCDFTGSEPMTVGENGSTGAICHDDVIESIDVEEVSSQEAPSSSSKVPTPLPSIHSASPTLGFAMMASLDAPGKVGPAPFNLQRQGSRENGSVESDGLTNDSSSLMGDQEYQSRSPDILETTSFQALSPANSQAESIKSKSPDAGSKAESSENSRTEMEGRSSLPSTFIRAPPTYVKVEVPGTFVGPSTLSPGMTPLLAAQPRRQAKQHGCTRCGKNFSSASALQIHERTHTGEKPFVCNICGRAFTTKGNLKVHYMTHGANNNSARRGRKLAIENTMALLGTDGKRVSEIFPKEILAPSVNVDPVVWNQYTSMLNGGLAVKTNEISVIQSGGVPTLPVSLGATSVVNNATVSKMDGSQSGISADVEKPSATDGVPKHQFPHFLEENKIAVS

SMILES	SALL4 degradation [1]	IC50 [2] [µM]	IKZF1 degradation [3]	Kd [4] [µM]	DC50 [5] [µM]	Dmax [5] [%]
CN1CCCc2ccc(N3CCC(=O)NC3=O)cc21 [Example 33, 1-(1-Methyl-1,2,3,4-tetrahydroquinolin-7-yl)dihydropyrimidine-2,4 (1H,3H)-dione]	no observable/meaningful SALL4 degradation	0.762	no observable/meaningful IKZF1 degradation	–	–	–
Cc1sc2c(c1C)C(c1ccc(Cl)cc1)=N[C@@H](CC(=O)NCCNC(=O)Cc1c[nH]c3cc(N4CCC(=O)NC4=O)ccc13)c1nnc(C)n1-2 [Example 127, (S)-2-(4-(4-Chlorophenyl)-2,3,9-trimethyl-6H-thieno[3,2-f][1,2,4]triazolo[4,3-a][1,4]-diazepin-6-yl)-N-(2-(2-(6-(2,4-dioxotetrahydropyrimidin-1 (2H)-yl)-1H-indol-3-yl)acetamido)ethyl)-acetamide]	–	–	–	0.013	0.198	97.2
Cc1sc2c(c1C)C(c1ccc(Cl)cc1)=N[C@@H](CC(=O)NCCOCCOCCNC(=O)Cc1c[nH]c3cc(N4CCC(=O)NC4=O)ccc13)c1nnc(C)n1-2 [Example 128, (S)-2-(4-(4-Chlorophenyl)-2,3,9-trimethyl-6H-thieno[3,2-f][1,2,4]triazolo[4,3-a][1,4]-diazepin-6-yl)-N-(2-(2-(2-(2-(6-(2,4-dioxotetrahydropyrimidin-1 (2H)-yl)-1H-indol-3-yl)acetamido)-ethoxy)ethoxy)ethyl)acetamide]	–	–	–	0.019	1.14	73.1
O=C1CCN(c2ccc3cc[nH]c3c2)C(=O)N1 [Example 55, 1-(1H-Indol-6-yl)dihydropyrimidine-2,4 (1H,3H)-dione]	no observable/meaningful SALL4 degradation	0.22	no observable/meaningful IKZF1 degradation	–	–	–
Cc1sc2c(c1C)C(c1ccc(Cl)cc1)=N[C@@H](CC(=O)NCCOCCOCCOCCOCCOCCOCCNC(=O)Cc1c[nH]c3cc(N4CCC(=O)NC4=O)ccc13)c1nnc(C)n1-2 [Example 129, (S)-2-(4-(4-Chlorophenyl)-2,3,9-trimethyl-6H-thieno[3,2-f][1,2,4]triazolo[4,3-a][1,4]-diazepin-6-yl)-N-(1-(6-(2,4-dioxotetrahydropyrimidin-1 (2H)-yl)-1H-indol-3-yl)-2-oxo-6,9,12,15,18,21-hexaoxa-3-azatricosan-23-yl)acetamide]	–	–	–	0.03	0.97	111
